The subject of this assay is HPAF-II (expressing KRas G12D mutant). The experiment in a line: Proliferation Assay (Cell Viability Assay). The format is cell-based. Conditions: Homo sapiens, pancreatic. In outline:
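Cells (2000–5000/well; CF-PAC1 in IMDM, HPAF-II in EMEM, NCI-H441 and NCI-H1299 in RPMI 1640) were plated overnight, then exposed to compounds at 10 μM or in serial dilutions for IC50 with 0.3% DMSO and 10% FBS for 2–4 days at 37 °C. Viability was read with CellTiter 96 Aqueous One, and percent inhibition was calculated.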

For `COc1ccnc(Nc2nc(-c3nccn3C)nn3cc(-c4ccn(C(C)C)n4)c(C)c23)c1` [Compound 58, 6-(1-Isopropyl-1H-pyrazol-3-yl)-N-(4-methoxypyridin-2-yl)-5-methyl-2-(1-methyl-1H-imidazol-2-yl)pyrrolo[2,1-f][1,2,4]triazin-4-amine], the IC50 was less than 150 nM.

By IC50 is commonly meant the midpoint of a concentration-inhibition curve. Higher therefore signals weaker potency in that assay.

For the origin of these results see patent US12459951B2, “Compounds that interact with RAS superfamily proteins for treatment of cancers, inflammatory diseases, rasopathies, and fibrotic disease” (SHY Therapeutics, LLC, priority 2022, dated 2025).
